In patent US20230099344A1, “COMPOUNDS AND METHODS FOR THE TARGETED DEGRADATION OF IRAK-4” (Arvinas Operations, Inc., priority 2021, published 2023):
Like-named read-outs stand apart in the source and are kept apart here.

Key:
Type in all cases: cell-based
IRAK-4 [1] = molecular target: T1, IRAK-4 (Homo sapiens, UniProt Q9NWZ3); assay: IRAK-4 ELISA, PBMC degradation; design: endogenous in cells; host or cells: PBMC; conditions: treated overnight
T1 sequence (Q9NWZ3 1-460): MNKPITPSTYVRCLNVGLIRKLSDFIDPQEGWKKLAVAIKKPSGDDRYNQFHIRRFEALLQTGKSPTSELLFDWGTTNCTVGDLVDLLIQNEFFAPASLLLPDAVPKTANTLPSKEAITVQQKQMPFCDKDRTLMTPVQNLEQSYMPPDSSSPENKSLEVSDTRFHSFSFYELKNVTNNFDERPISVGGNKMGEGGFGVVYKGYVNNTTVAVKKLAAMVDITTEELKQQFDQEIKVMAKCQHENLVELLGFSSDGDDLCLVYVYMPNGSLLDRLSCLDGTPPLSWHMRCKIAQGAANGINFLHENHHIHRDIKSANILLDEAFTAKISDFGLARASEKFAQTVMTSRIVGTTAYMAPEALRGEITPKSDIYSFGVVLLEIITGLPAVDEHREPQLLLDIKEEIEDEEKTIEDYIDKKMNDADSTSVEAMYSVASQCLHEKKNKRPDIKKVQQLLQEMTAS
Summary of the method: (§1)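 OCI-Ly10 cells (1×10^6/ml) or PBMC (2×10^6/ml) treated with compound on the day of seeding and incubated overnight. IRAK-4 protein remaining in cell lysates quantified by sandwich ELISA.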

IL8 = assay: IL-1β stimulated IL8 inhibition assay in PBMC; conditions: human PBMCs, IL-1β stimulation, compound overnight, IL8 by MSD after 24 hrs; for IC50: read-out: IL1β stim IL8 inhibition IC50; for Emax: read-out: IL1β stim IL8 inhibition Ymax
Description: (§2) IL-1β, LPS, or R848 Stimulated IL6 Inhibition and IL-1β Stimulated IL8 Inhibition Assay
(§3) Human PBMC cells were seeded at 2.0×10^6 cells/mL, treated with compound overnight, and dosed with the EC50 concentration of each stimulant (either IL-1B. LPS, or R848) was determined for each donor. After 24 hrs, media was collected and analyzed by MSD for IL6 and/or IL8 levels.

IRAK-4 [2] = molecular target: T1, IRAK-4; assay: IRAK-4 ELISA, OCI-Ly10 degradation; design: endogenous in cells; conditions: treated overnight; for Dmax: OCI-Ly10, OCI-Ly10 cells
Summary of the method: as §1

IL6 = assay: IL-1β stimulated IL6 inhibition assay in PBMC; conditions: human PBMCs, IL-1β stimulation, compound overnight, IL6 by MSD after 24 hrs; for IC50: read-out: IL1β stim IL6 inhibition IC50; for Emax: read-out: IL1β stim IL6 inhibition Ymax
Description: as §2, §3

Structure (SMILES) | DC50 (IRAK-4 [1]) [nM] | PBMC DC90 (IRAK-4 [1]) | PBMC Dmax (IRAK-4 [1]) | IC50 (IL8) [nM] | Emax (IL8) [%] | DC50 (IRAK-4 [2]; OCI-Ly10 cells) [nM] | OCI-LY10 Dmax (IRAK-4 [2]; OCI-Ly10 cells) | IL1β stim IL6 inhibition Ymax (IL6) | IC50 (IL6) [nM] | Dmax (IRAK-4 [1]) [%] | Dmax (IRAK-4 [2]) [%] | IC50 (IL6; Homo sapiens, PBMC, 24 h) [nM] | Emax (IL6; PBMC) [%]
O=C1CCC(N2C(=O)c3ccc(N4CCC(CN5CCC(N6Cc7cc(NC(=O)c8cnn9cccnc89)c(N8CCOCC8)cc7C6=O)CC5)CC4)cc3C2=O)C(=O)N1 (centres unmarked) [Example 32] | 1 to 5 | C (C represents a DC90 value ≥25.0 nM and <50 nM) | C (C represents a Dmax value ≥70 and <80) | ≥ 100 | ≥ 90 | < 10 | D (D represents a Dmax value <70) | A (A represents a Ymax value ≥90) | 10 to 50 |  |  |  | 
O=C1CCC(N2Cc3cc(CCN4CCC(N5Cc6cc(NC(=O)c7cnn8cccnc78)c(N7CCOCC7)cc6C5=O)CC4)ccc3C2=O)C(=O)N1 (centres unmarked) [Example 36] | 1 to 5 | B (B represents a DC90 value ≥10.0 nM and <25.0 nM) |  | ≥ 100 |  | < 10 |  |  |  | < 70 | < 70 | 10 to 50 | 70 to 80
O=C1CCC(N2C(=O)c3ccc(N4CCC(CN5CCC(N6Cc7cc(NC(=O)c8cnn9cccnc89)c(N8CCC(N9CCC9)CC8)cc7C6=O)CC5)CC4)cc3C2=O)C(=O)N1 (centres unmarked) [Example 38] | 1 to 5 | A (A represents a DC90 value <10.0 nM) |  | ≥ 100 | ≥ 90 | < 10 |  |  |  | ≥ 90 | ≥ 90 | < 10 | ≥ 90
CC(C)Oc1cc2c(cc1NC(=O)c1cnn3cccnc13)CN(C1CCN(C3CN(c4ccc5c(c4)C(=O)N(C4CCC(=O)NC4=O)C5=O)C3)CC1)C2=O (centres unmarked) [Example 59] | 1 to 5 | B (B represents a DC90 value ≥10.0 nM and <25.0 nM) |  | 50 to 100 | 70 to 80 | < 10 |  |  |  | ≥ 90 | ≥ 90 | 10 to 50 | ≥ 90
CC(C)Oc1cc2c(cc1NC(=O)c1cnn3cccnc13)CN(C1CCN(C3CCN(c4ccc5c(c4)C(=O)N(C4CCC(=O)NC4=O)C5=O)CC3)CC1)C2=O (centres unmarked) [Example 64] | < 1 | A (A represents a DC90 value <10.0 nM) |  | 50 to 100 | < 70 | < 10 |  |  |  | ≥ 90 | ≥ 90 | 10 to 50 | 80 to 90
CC(C)Oc1cc2c(cc1NC(=O)c1cnn3cccnc13)CN([C@H]1CC[C@@H](N3CC4(CN(c5ccc6c(c5)C(=O)N(C5CCC(=O)NC5=O)C6=O)C4)C3)CC1)C2=O (some centres unmarked) [Example 69] | 1 to 5 | A (A represents a DC90 value <10.0 nM) |  | 10 to 50 | 80 to 90 | < 10 |  |  |  | ≥ 90 | ≥ 90 | 10 to 50 | ≥ 90
O=C1CCC(N2C(=O)c3ccc(N4CC(CN5CCC(N6Cc7cc(NC(=O)c8cnn9cccnc89)c(OCC8CC8)cc7C6=O)CC5)C4)cc3C2=O)C(=O)N1 (centres unmarked) [Example 86] | 1 to 5 | B (B represents a DC90 value ≥10.0 nM and <25.0 nM) |  | 10 to 50 | 70 to 80 | < 10 |  |  |  | ≥ 90 | ≥ 90 | < 10 | ≥ 90
O=C1CCC(N2C(=O)c3ccc(N4CC(CN5CCC(N6Cc7cc(NC(=O)c8cnn9cccnc89)c(N8CCOCC8)cc7C6=O)CC5)C4)cc3C2=O)C(=O)N1 (centres unmarked) [Example 96] | 1 to 5 | B (B represents a DC90 value ≥10.0 nM and <25.0 nM) |  | ≥ 100 | < 70 | 10 to 50 |  |  |  | ≥ 90 | ≥ 90 | 50 to 100 | ≥ 90
O=C1CCC(N2C(=O)c3ccc(N4CC(N5CCC(N6Cc7cc(NC(=O)c8cnn9cccnc89)c(N8CCC(N9CCC9)CC8)cc7C6=O)CC5)C4)cc3C2=O)C(=O)N1 (centres unmarked) [Example 99] | 5 to 10 | D (D represents a DC90 value ≥50 nM) |  | 50 to 100 | 80 to 90 | < 10 |  |  |  | 80 to 90 | ≥ 90 | 10 to 50 | ≥ 90
O=C1CCC(N2Cc3cc(OCCOCCN4CCC(n5cc6cc(NC(=O)c7cnn8cccnc78)c(OCC7CC7)cc6n5)CC4)ccc3C2=O)C(=O)N1 (centres unmarked) [Example 119] | < 1 | A (A represents a DC90 value <10.0 nM) |  | 10 to 50 | 80 to 90 | < 10 |  |  |  | ≥ 90 | 80 to 90 | < 10 | ≥ 90
O=C1CCC(N2Cc3cc(OCCN4CCC(n5cc6cc(NC(=O)c7cnn8cccnc78)c(OCC7CC7)cc6n5)CC4)ccc3C2=O)C(=O)N1 (centres unmarked) [Example 122] | 1 to 5 | B (B represents a DC90 value ≥10.0 nM and <25.0 nM) |  | 50 to 100 | 80 to 90 | < 10 |  |  |  | < 70 | < 70 | 10 to 50 | ≥ 90
O=C1CCC(N2Cc3cc(CCN4CCC(n5cc6cc(NC(=O)c7cnn8cccnc78)c(OCC7CC7)cc6n5)CC4)ccc3C2=O)C(=O)N1 (centres unmarked) [Example 126] | 1 to 5 | B (B represents a DC90 value ≥10.0 nM and <25.0 nM) |  | < 10 | < 70 | < 10 |  |  |  | < 70 | ≥ 90 | < 10 | ≥ 90
O=C1CCC(N2Cc3cc(N4CC(CN5CCC(n6cc7cc(NC(=O)c8cnn9cccnc89)c(OCC8CC8)cc7n6)CC5)C4)ccc3C2=O)C(=O)N1 (centres unmarked) [Example 134] | < 1 | A (A represents a DC90 value <10.0 nM) |  | 10 to 50 | 70 to 80 | < 10 |  |  |  | ≥ 90 | ≥ 90 | < 10 | ≥ 90
O=C1CCC(N2Cc3cc(N4CC(CN5CCC(n6cc7cc(NC(=O)c8cnn9cccnc89)c(C8CC8)cc7n6)CC5)C4)ccc3C2=O)C(=O)N1 (centres unmarked) [Example 136] | < 1 | A (A represents a DC90 value <10.0 nM) |  | 50 to 100 | 70 to 80 | < 10 |  |  |  | ≥ 90 | 70 to 80 | < 10 | ≥ 90
COc1cc2nn(C3CCN(CC4CCN(c5ccc6c(c5)CN(C5CCC(=O)NC5=O)C6=O)CC4)CC3)cc2cc1NC(=O)c1cnn2cccnc12 (centres unmarked) [Example 141] | 1 to 5 | B (B represents a DC90 value ≥10.0 nM and <25.0 nM) |  | 10 to 50 | 80 to 90 | < 10 |  |  |  | 80 to 90 | 80 to 90 | < 10 | ≥ 90
COc1cc2nn(C3CCN(CC4CN(c5ccc6c(c5)CN(C5CCC(=O)NC5=O)C6=O)C4)CC3)cc2cc1NC(=O)c1cnn2cccnc12 (centres unmarked) [Example 142] | < 1 | A (A represents a DC90 value <10.0 nM) |  | 10 to 50 | < 70 | < 10 |  |  |  | 80 to 90 | 70 to 80 | < 10 | ≥ 90
COc1cc2nn(C3CCN(CCc4ccc5c(c4)CN(C4CCC(=O)NC4=O)C5=O)CC3)cc2cc1NC(=O)c1cnn2cccnc12 (centres unmarked) [Example 143] | 1 to 5 | C (C represents a DC90 value ≥25.0 nM and <50 nM) |  | < 10 | 70 to 80 | < 10 |  |  |  | ≥ 90 | ≥ 90 | < 10 | ≥ 90
O=C1CCC(N2C(=O)c3ccc(N4CC(CN5CCC([C@H](F)Cn6cc7cc(NC(=O)c8cnn9cccnc89)c(OCC8CC8)cc7n6)CC5)C4)cc3C2=O)C(=O)N1 (some centres unmarked) [Example 173] | < 1 | A (A represents a DC90 value <10.0 nM) |  | 10 to 50 | < 70 | < 10 |  |  |  | ≥ 90 | ≥ 90 | 10 to 50 | ≥ 90
O=C1CCC(N2C(=O)c3ccc(N4CCC(CN5CCC([C@H](F)Cn6cc7cc(NC(=O)c8cnn9cccnc89)c(OCC8CC8)cc7n6)CC5)CC4)cc3C2=O)C(=O)N1 (some centres unmarked) [Example 182] | < 1 | A (A represents a DC90 value <10.0 nM) |  | < 10 | < 70 | < 10 |  |  |  | ≥ 90 | ≥ 90 | < 10 | 80 to 90
